From patent US6251893A, “Bicyclic piperidine and piperazine compounds having 5-HT6 receptor affinity” (NPS Allelix Corp., priority 1998, dated 2001) come the findings set out here.

For one assay, the target named is T1, 5HT2C receptor (Homo sapiens, UniProt P28335).
T1 sequence (P28335 33-458): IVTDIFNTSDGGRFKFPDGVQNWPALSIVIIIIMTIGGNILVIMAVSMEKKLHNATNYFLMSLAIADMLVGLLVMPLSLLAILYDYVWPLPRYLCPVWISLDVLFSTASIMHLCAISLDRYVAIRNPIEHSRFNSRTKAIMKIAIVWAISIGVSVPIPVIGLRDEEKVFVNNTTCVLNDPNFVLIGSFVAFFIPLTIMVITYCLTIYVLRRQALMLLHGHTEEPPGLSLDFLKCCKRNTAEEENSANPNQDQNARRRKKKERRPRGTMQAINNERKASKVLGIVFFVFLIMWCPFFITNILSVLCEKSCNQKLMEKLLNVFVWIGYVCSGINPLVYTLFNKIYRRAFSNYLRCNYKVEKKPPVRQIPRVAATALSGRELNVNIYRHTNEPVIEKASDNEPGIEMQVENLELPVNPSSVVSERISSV
Kind of assay: Binding to 5HT2C receptor (selectivity). To be noted: selectivity versus 5-HT6; read-out: percent inhibition for the 5HT2C receptor.

A further assay addresses 5-HT2A receptor (Homo sapiens, UniProt P28223). Kind of assay: Binding to 5-HT2A receptor (selectivity). Set-up: dose or concentration left out as unconfirmed. As to conditions: selectivity versus 5-HT6; read-out: percent inhibition for the 5-HT2A receptor.
The target in assay [1] is T2, human 5HT6 receptor (Homo sapiens, UniProt P50406). In words: Functional assay: reversal of serotonin-stimulated adenyl cyclase activity (cAMP) in HEK 293 cells stably expressing the human 5HT6 receptor. Set-up: cAMP functional assay in whole cells. Type of assay: cell-based. To be noted: 100 nM and 10 μM test compound with serotonin. The protocol:
The 5HT6 receptor responds to serotonin and other agonists by increasing adenyl cyclase mediated production of cyclic AMP. Particular test compounds were assayed for their effect on adenyl cyclase activity using the procedure described below.
Compounds acting as antagonists at the 5HT6 receptor will antagonize the agonist effect of serotonin and thus, will block the serotonin-inducedincrease in adenyl cyclase activity.
HEK 293 cells stably expressing the human 5HT6 receptor were plated in 6 well plates in DMEM (Dulbecco's Modified Eagle Medium)/F12 (Nutrient Mixture F12-Ham) media with 10% FCS (fetal calf serum) and G418 (Geneticen Disulfate, 500 ug/ml), and incubated at 37° C. in a CO2 incubator. The cells were allowed to grow to about 70% confluence before use in the assay.
The culture medium of each well was removed, and the wells were washed once with serum free media. Then 2 ml of SFM+IBMX medium (SFM with 0.5 mM IBMX, 3-isobutyl-1-methylxanthine, 0.1% ascorbic acid and 10 mM pargyline) was added to each well and the wells were incubated at 37° C. for 10 min. Following incubation, the SFM+IBMX medium was removed from each well and fresh SFM+IBMX media was added to the wells separately with one of a) serotonin (1 μM final concentration); b) test compound (100 nM and 10 μM, to test for agonist activity); and c) test compound (100 nM and 10 μM) along with serotonin ([…], to test for antagonist activity). Basal adenyl cyclase activity was determined from wells with only SFM+IBMX media added.
The cells were then incubated at 37° C. for 30 minutes in a CO2 incubator. Following incubation, the media were removed from each well. The wells were washed once with 1 ml of PBS (phosphate buffered saline). Each well was then treated with 1 mL cold 95% ethanol:5 mM EDTA (2:1) at 4° C. for 1 hour. The cells from each well were then scraped and transferred into individual Eppendorf tubes. The tubes were centrifuged for 5 minutes at 4° C., and the supernatants were transferred to new Eppendorf tubes and stored at 4° C. The pellets were discarded and the supernatants were stored at 4° C. until assayed for cAMP concentration. cAMP content for each extract was determined in duplicate by EIA (enzyme-immunoassay) using the Amersham Biotrak cAMP EIA kit (Amersham RPN 225). Final results were expressed as % basal response for agonists and % reversal of serotonin response for antagonists.
The total stimulation of adenyl cyclase by serotonin (So) was determined as the difference in concentration of cAMP in the serotonin-treated cells (Cd) and the basal-treated cells (Cf).
The net stimulation (S) of basal adenyl cyclase by an agonist test compound was determined as the difference in cAMP concentration in the drug-treatedcell (C) and the basal-treated cells (Cf).
The net stimulation (Ss) of basal adenyl cyclase by serotonin in the presence of an antagonist test compound was determined as the difference in cAMP concentration in the serontonin-drug-treated cells (Cs) and the basal-treated cells (Cf).
The ability of the antagonist test compound to reverse the serotonin stimuation of adenyl cyclase activity (% reversal, % R) was determined by the formula: […]

Assay [2] has as its target T2, human 5HT6 receptor. In words: Binding affinity for the 5-HT6 receptor (3H-LSD displacement). Set-up: expressed in transfected cells. As to conditions: 100 nM test compound; 3H-LSD (2 nM); 60 minute incubation at 37° C; read-out: percent inhibition of radioligand binding for the 5-HT6 receptor. Here is the method:
Binding Affinity for the 5-HT6 Receptor
The assay protocol generally entailed the incubation of membranes prepared from cells expressing the 5-HT6 receptor with ^3 H-LSD (2 nM). Increasing levels of the test compound were incubated with the radioligand and the membrane homogenates prepared from the recombinant cells. After a 60 minute incubation at 37° C., the incubation was terminated by vacuum filtration. The filters were washed with buffer and the filters were counted for radioactivity using liquid scintillation spectrometry. […] Concentrations ranging from 10^-11 M to 10^-5 M of the test compound were evaluated. […] Affinity for the 5-HT6 receptor is expressed as the amount (in percent) of binding of the radioligand that is inhibited in the presence of 100 nM of test compound. A greater percent inhibition indicates greater affinity for the 5-HT6 receptor.

In a further assay the target is 5-HT7 receptor (Homo sapiens, UniProt P34969). Kind of assay: Binding to 5-HT7 receptor (selectivity). Also on record: dose or concentration left out as unconfirmed. As to conditions: selectivity versus 5-HT6; read-out: percent inhibition for the 5-HT7 receptor.

Molecules are shown by their SMILES.

Sequence of 5-HT7 receptor (P34969 whole entry): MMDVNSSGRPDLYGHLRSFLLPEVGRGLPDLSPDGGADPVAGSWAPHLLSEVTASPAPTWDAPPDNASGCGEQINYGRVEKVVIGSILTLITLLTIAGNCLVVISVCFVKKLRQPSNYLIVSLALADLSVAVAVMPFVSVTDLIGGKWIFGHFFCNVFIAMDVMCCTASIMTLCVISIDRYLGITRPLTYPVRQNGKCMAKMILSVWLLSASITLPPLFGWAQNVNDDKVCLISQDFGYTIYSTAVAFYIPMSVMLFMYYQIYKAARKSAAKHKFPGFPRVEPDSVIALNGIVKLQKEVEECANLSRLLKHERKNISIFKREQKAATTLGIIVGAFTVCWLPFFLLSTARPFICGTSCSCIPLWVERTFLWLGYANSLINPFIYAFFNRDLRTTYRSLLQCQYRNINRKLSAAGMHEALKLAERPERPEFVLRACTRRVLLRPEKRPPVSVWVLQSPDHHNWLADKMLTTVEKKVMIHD
T2 sequence (P50406 whole entry): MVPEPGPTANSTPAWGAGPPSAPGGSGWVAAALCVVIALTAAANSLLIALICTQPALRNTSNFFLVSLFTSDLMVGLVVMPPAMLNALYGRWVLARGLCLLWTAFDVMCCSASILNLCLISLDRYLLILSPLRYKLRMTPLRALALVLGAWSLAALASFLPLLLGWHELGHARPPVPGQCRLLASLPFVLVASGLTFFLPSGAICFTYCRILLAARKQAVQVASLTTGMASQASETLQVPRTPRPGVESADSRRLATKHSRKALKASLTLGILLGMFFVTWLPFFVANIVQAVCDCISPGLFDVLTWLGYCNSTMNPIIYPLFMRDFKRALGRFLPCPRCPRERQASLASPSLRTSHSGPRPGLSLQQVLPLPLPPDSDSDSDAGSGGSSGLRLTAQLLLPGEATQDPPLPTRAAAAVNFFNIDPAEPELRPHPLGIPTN
Sequence of 5-HT2A receptor (P28223 whole entry): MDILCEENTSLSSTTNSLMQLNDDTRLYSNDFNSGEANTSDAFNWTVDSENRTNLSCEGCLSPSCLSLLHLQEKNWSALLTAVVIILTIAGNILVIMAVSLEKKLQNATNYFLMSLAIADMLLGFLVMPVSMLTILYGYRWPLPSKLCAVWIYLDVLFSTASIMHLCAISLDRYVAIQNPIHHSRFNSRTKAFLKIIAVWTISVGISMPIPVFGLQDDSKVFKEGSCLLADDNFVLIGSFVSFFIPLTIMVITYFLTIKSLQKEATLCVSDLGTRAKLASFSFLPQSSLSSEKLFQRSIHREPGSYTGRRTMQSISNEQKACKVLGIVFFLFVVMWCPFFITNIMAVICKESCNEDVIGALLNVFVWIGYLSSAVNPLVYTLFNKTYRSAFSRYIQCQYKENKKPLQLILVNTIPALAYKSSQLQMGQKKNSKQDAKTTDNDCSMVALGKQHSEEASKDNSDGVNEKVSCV

Take `O=S(=O)(c1cccc2ccccc12)n1cc(N2CCN3CCCC3C2)c2ccccc21` (racemic) [Example 6b, 3-[(6-R,S)-1,4-Diaza[4.3. 0]bicyclonon-4-yl]-1-(1-naphthalenesulfonyl)indole]: the inhibition at 0.1 µM on 5HT2C receptor is below 20%; on human 5HT6 receptor [2] it was above 80%. Further, the inhibition at 5-HT2A receptor and on 5-HT7 receptor was below 20% throughout. Besides, at human 5HT6 receptor [1], the “reversal of serotonin stimulation of adenyl cyclase (5-HT6 receptor antagonism)” value (shortened to “reversal”) was “able to reverse the serotonin stimulation of adenyl cyclase”.
Regarding `O=S(=O)(c1ccccc1)n1cc(N2CCN3CCCC3C2)c2ccccc21` (racemic) [Example 6j, 3-[(6-R,S)-1,4-Diaza[4.3.0]bicyclonon-4-yl]-1-(phenylsulfonyl)indole], the inhibition at 0.1 µM at 5HT2C receptor was below 20%; on human 5HT6 receptor [2], above 80%. Further, the inhibition at 5-HT2A receptor and at 5-HT7 receptor was below 20% throughout. Further, the “reversal” value at human 5HT6 receptor [1] is “able to reverse the serotonin stimulation of adenyl cyclase”.
As to `O=S(=O)(c1ccccc1)n1cc(C2=CCN3CCCC3C2)c2cc(F)ccc21` (racemic) [Example 6x, 5-Fluoro-3-[(8a-R,S)-1,2,3,5,8,8a-hexahydro-7-indolizinyl]-1-phenylsulfonylindole], the values for the inhibition at 0.1 µM on 5HT2C receptor and on human 5HT6 receptor [2] were below 20% and above 80%, respectively. The inhibition on 5-HT2A receptor and at 5-HT7 receptor was below 20% each time. For the same molecule, the “reversal” value at human 5HT6 receptor [1] was “able to reverse the serotonin stimulation of adenyl cyclase”.
As for `O=S(=O)(c1cccc2ccccc12)n1cc(C2=CCN3CCCC3C2)c2cc(F)ccc21` (racemic) [Example 6y, 5-Fluoro-3-[(8a-R,S)-1,2,3,5,8,8a-hexahydro-7-indolizinyl]-1-(1-naphthalenesulfonyl)indole], the results for the inhibition at 0.1 µM on 5HT2C receptor and at human 5HT6 receptor [2] were below 20% and above 80%, respectively. Further, the inhibition on 5-HT2A receptor and on 5-HT7 receptor was below 20% throughout. Further, the “reversal” value at human 5HT6 receptor [1] is “able to reverse the serotonin stimulation of adenyl cyclase”.
Regarding `O=S(=O)(c1ccc2ccccc2c1)n1cc(C2CCN3CCCC3C2)c2cc(F)ccc21` (single isomer, unassigned; isomer i) [Example 10a, 5-Fluoro-3-[(7R or 7S)(8a-R,S)-octahydrohydro-7-indolizinyl]-1-(2-naphthalenesulfonyl)indole,Isomer I], at human 5HT6 receptor [1], the “reversal” value is on record as “able to reverse the serotonin stimulation of adenyl cyclase”. For the same molecule, the inhibition at 0.1 µM at human 5HT6 receptor [2] was above 80%.
As for `O=S(=O)(c1ccccc1)n1cc(C2CCN3CCCC3C2)c2cc(F)ccc21` (single isomer, unassigned; isomer i) [Example 10c, 5-Fluoro-3-[(7R or 7S)(8a-R,S)-octahydrohydro-7-indolizinyl]-1-phenylsulfonylindole, Isomer I], the “reversal” value on human 5HT6 receptor [1] is reported as “able to reverse the serotonin stimulation of adenyl cyclase”. Also, the inhibition at 0.1 µM at human 5HT6 receptor [2] is above 80%.
For `O=S(=O)(c1cccc2ccccc12)n1cc(C2CCN3CCCC3C2)c2cc(F)ccc21` (single isomer, unassigned; isomer i) [Example 10e, 5-Fluoro-3-[(7R or 7S)(8a-R,S)-octahydrohydro-7-indolizinyl]-1-(1-napthalenesulfonyl)indole, Isomer I], in that order: “able to reverse the serotonin stimulation of adenyl cyclase” and above 80%.
As for `O=S(=O)(c1ccc2ccccc2c1)n1cc(C2CCN3CCCC3C2)c2cc(F)ccc21` (single isomer, unassigned; isomer ii) [Example 10b, 5-Fluoro-3-[(7R or 7S)(8a-R,S)-octahydrohydro-7-indolizinyl]-1-(2-naphthalenesulfonyl)indole, Isomer II], on 5HT2C receptor, the inhibition at 0.1 µM is below 20%. The inhibition at 5-HT2A receptor and on 5-HT7 receptor was below 20% throughout. Moreover, the “reversal” value on human 5HT6 receptor [1] is given as “able to reverse the serotonin stimulation of adenyl cyclase”.
Take `O=S(=O)(c1ccccc1)n1cc(C2CCN3CCCC3C2)c2cc(F)ccc21` (single isomer, unassigned; isomer ii) [Example 10d, 5-Fluoro-3-[(7R or 7S)(8a-R,S)-octahydrohydro-7-indolizinyl]-1-phenylsulfonylindole, Isomer II]: the “reversal” value on human 5HT6 receptor [1] is on record as “able to reverse the serotonin stimulation of adenyl cyclase”.
For `O=S(=O)(c1cccc2ccccc12)n1cc(C2CCN3CCCC3C2)c2cc(F)ccc21` (single isomer, unassigned; isomer ii) [Example 10f, 5-Fluoro-3-[(7R or 7S)(8a-R,S)-octahydrohydro-7-indolizinyl]-1-(1-naphthalenesulfonyl)indole,Isomer II], the inhibition at 0.1 µM at 5HT2C receptor is below 20%. In addition, the inhibition on 5-HT2A receptor and at 5-HT7 receptor was below 20% each time. Moreover, the “reversal” value on human 5HT6 receptor [1] is recorded as “able to reverse the serotonin stimulation of adenyl cyclase”.

The inhibition is the drop in the measured response relative to a control, in per cent.
